{
  "source": "patent US7741303B2",
  "about": "“Stimulation of cellular regeneration and differentiation in the inner ear” (Sound Pharmaceuticals Incorporated, priority 1998, dated 2010)",
  "key": {"[1]": {"system": "supporting cells of wild type organ of Corti explants", "assay": "p27^Kip1 antisense oligonucleotide treatment of neomycin-lesioned organ of Corti explants, BrdU immunocytochemistry", "format": "cell-based, mouse", "procedure": "(§1) To test whether inhibition of the p27^Kip1 gene product in p27^Kip1 +/+ cochlea would allow non-mitotic supporting cells to proliferate, wild type organ of Corti explants (P7-P10, at age of hearing onset) were treated with p27^Kip1 antisense oligonucleotides (ONs). Explant cultures were established by dissecting the organ of Corti from the cochlea, removing the tectorial membrane and adhering the organ of Corti to a glass slide coated with Cell-tak and maintained at 37° C. in a 5% CO2 environment. The explant was then exposed to an ototoxic antibiotic (1 mM neomycin sulfate) for 48 h which killed >95% of the HCs (Kil, J., et al., ARO abs. 21:672 (1998)). The neomycin containing media was then removed and p27^Kip1 antisense oligonucleotides (Ons) (40 nM) were administered using a cationic lipid (lipofection) for a period of 24-48 hr. Some of these living cultures were examined under fluorescence to detect the presence of FITC conjugated antisense ON.\nFITC-positive supporting cells were detected in 18-24 h and increased in number and fluorescent intensity between 24-48 h. Cultures were aldehyde fixed and processed for BrdU immunocytochemistry. […] BrdU-positive doublets appeared in antisense ON treated cultures that were recovered for an additional 24 hr without antisense ONs. […] Lipofection-only treated cultures contained very low levels of BrdU-labeled supporting cells."}, "[2]": {"system": "hair cells of organ of Corti explant", "assay": "Hair cell lesioning of organ of Corti cultures with neomycin", "format": "cell-based, mouse", "settings": "1 mM neomycin, organotypic cultures, 48 h, calbindin immunoreactivity and cross-section analysis", "procedure": "as §1, with “The neomycin containing media was then removed and p27^Kip1 antisense oligonucleotides (Ons) (40 nM) were administered using a cationic lipid (lipofection) for a period of 24-48 hr.” left out, “ON. […]” for “ON.”\nAn aminoglycoside antibiotic lesion of the hair-cells is then be combined with subsequent lipofection. […] Unlike cultures derived from neonatal mice, the two-week old mouse which has developed auditory function is more easily affected by this concentration of neomycin resulting in a greater than 95% loss of hair-cells as determined by calbindin immunoreactivities and plastic cross-section analysis. […] This may necessitate the use of a commercially available GFP antibody (Clonetech) to enhance the fluorescence of lipofected cells."}, "[3]": {"system": "hair cells of organ of Corti explant", "settings": "1 mM neomycin sulfate for 48 h; P7-P10 wild type explants; cited from earlier work"}, "auditory function": {"system": "auditory function", "assay": "Auditory brainstem response (ABR) threshold after amikacin sulfate treatment", "format": "in vivo, mice", "settings": "p27 heterozygotes, two and four weeks after amikacin sulfate treatment; p<0.001", "procedure": "Experimental animals were treated the same as the mice described in the experiments reported in Table 2 herein, except that, in the present example, there was an additional recovery time point at four weeks after amikacin treatment. Auditory function was measured using the auditory brainstem response (ABR) using subcutaneous recording electrodes placed on three head points in Isofluorane anesthetized mice. The sound intensity threshold was determined by presenting single frequencies as different sound intensities (intensity measured in decibels). The higher the tone intensity that is required to elicit the ABR, the higher the auditory threshold, i.e., the worse the auditory function."}, "[4]": {"system": "utricular, saccular and cristae sensory epithelium", "assay": "BrdU-labeled cells in the vestibular organs of p27^Kip1 mice after amikacin/BrdU", "format": "in vivo", "settings": "for number of BrdU labeled cells, utricle: BrdU/Amikacin (500 mg/kg/d s.c., P7-P12)", "procedure": "To determine whether p27^Kip1 plays a similar role in the peripheral vestibular system, the proliferative capacity of the utricle, saccule and cristae of p27^Kip1 +/−, and +/+ mice was examined. Mice (P7-P12) received systemic injections of amikacin sulfate (500 mg/kg/d/s.c) for six consecutive days that were combined with injections of the replication marker, bromodeoxyuridine (BrdU; 30 mg/kg/d/s.c) between P10-P12. Mice were also injected with BrdU alone in a similar fashion. Mice were then sacrificed 14 d later and the vestibular sensory organs were fixed, dissected and processed for BrdU immunocytochemistry. BrdU positive nuclei were counted from whole mounts using light microscopy and Nomarski optics. Selected organs were further processed for cross section analysis.\nBrdU positive HCs were also observed in both otolithic organs. Most of these regenerated HC appeared as type I HCs in that they were contacted by a calyx. […] In p27^Kip1 +/+ mice, no BrdU positive nuclei in either the saccule or utricle were observed after amikacin/BrdU or BrdU alone. […] Counts were performed from whole utricular, saccular and cristae sensory epithelium (±s.d.). In the BrdU group, statistical significance was determined by comparing proliferation levels in the same sensory organ across +/+, +/− and −/−. In the BrdU/Amikacin group, statistical significance was determined by comparing proliferation levels in the same sensory organ of the same genotype. Statistical significance was determined using ANOVA."}, "organ of Corti": {"system": "organ of Corti", "assay": "BrdU-labeled cells in the organ of Corti of p27^Kip1 +/+, +/−, −/− mice after amikacin lesioning", "format": "in vivo", "settings": "for number of BrdU labeled cells in the organ of Corti: 1000 μm length of sensory epithelium, apical half of cochlea, ±s.d.", "procedure": "To determine whether auditory hair cells were being produced after the onset of hearing at postnatal day 10, two-week old p27^Kip1 −/−, +/−, +/+ mice (P10-12) received three daily systemic injections of bromodeoxyuridine (BrdU; 30 mg/kg/s.c), a nucleotide analog which is incorporated into proliferating cells during S phase. Mice were then permitted to recover for two-days or two-weeks without further injections. BrdU positive HCs were identified with immunocytochemistry using light and fluorescence microscopy. Cochlea were also labeled with antibodies against myosin-VI and myosin-VIIa. In two-week old p27^Kip1 −/− cochlea that were recovered for 2d after the last injection, no BrdU/myosin-VIIa positive cells were observed among the BrdU positive cells. However, in four-week old p27^Kip1 −/− cochlea that were recovered for 14 days after the last injection, BrdU/myosin-VIIa positive HCs were observed. Most of those double labeled were IHCs. This qualitative finding is similar to our quantitative assessments of IHCs and OHCs numbers. p27^Kip1 +/−, +/+ mice were completely devoid of BrdU positive cells at 2d and 14d of recovery. […] Counts were performed on a 1000 μm length of sensory epithelium taken in the apical half of the cochlea (±s.d.). Proliferation in the BrdU groups were compared across +/+, +/−and −/−. Proliferation in the BrdU/Amikacin group was compared with that in the BrdU only group of the same genotype. Statistical significance was determined using ANOVA.\nTo ascertain whether auditory HCs could be regenerated, HCs were lesioned using systemic injections of amikacin sulfate (P7-P12) and then injected with BrdU (P10-12). Mice were sacrificed either 2 d or 14 d after the last injection. The effects of an amikacin lesioning were at least two-fold. First, in both p27^Kip1 −/− and +/− mice, the number of BrdU positive cells increased following amikacin/BrdU vs BrdU alone treatment. […] Evidence of HC regeneration was confirmed by sectioning the labeled cochlea. Second, a greater number of BrdU positive HCs were observed following amikacin lesioning in p27^Kip1 −/− cochlea. The majority of the BrdU positive HCs appeared in the regions of the cochlea where the amikacin sulfate had injured or killed HCs (in the basal half of the cochlea)."}, "guinea pig JH4 cells": {"system": "guinea pig JH4 cells", "assay": "Reversal of serum-deprivation growth arrest, BrdU labeling", "format": "cell-based", "from_the_text": "Cells were counted under fluorescence microscopy. The combination of lipids and p27^kip1. AS reversed growth arrest to 40% of that seen with 10% FBS stimulation (p<0.0001). (+) FBS; (−) no FBS; (AS) antisense oligonucleotide; (lipid) lipofection.\nCultures of cell lines were established that are responsive to p27^Kip1 antisense oligonucleotides (ON) during the period of serum withdrawal and growth arrest. These cultures include a guinea pig fibroblast line (JH4). Lipofection of the 16 mer antisense ON (having the nucleic acid sequence set forth in SEQ ID NO:20) reversed growth arrest in the JH4 cell line to over 40% of normal."}, "[5]": {"settings": "p27^Kip1 +/+ mice, BrdU/Amikacin, 14 d recovery, whole sensory epithelium, ±s.d."}, "[6]": {"settings": "p27^Kip1 +/− mice, BrdU/Amikacin, 14 d recovery, whole sensory epithelium, ±s.d."}, "[7]": {"settings": "p27^Kip1 −/− mice, BrdU/Amikacin, 14 d recovery, whole sensory epithelium, ±s.d."}},
  "data": [
    {"compound": "antisense ON: p27^Kip1 antisense oligonucleotides administered using a cationic lipid (lipofection) to organ of Corti explants (antisense TGGCTCTCCTGCGCC; FITC conjugated, delivered with cationic lipid, further chemistry not given here)", "values": [
      {"measurement": "BrdU-positive supporting cells", "setting": "[1]; 40 nM antisense ON by lipofection, after 24 h of treatment, after 1 mM neomycin 48 h", "result": "appeared in most cochlear cultures"},
      {"measurement": "time at which FITC-positive supporting cells were detected", "setting": "[1]; FITC conjugated antisense ON, lipofection, living cultures under fluorescence", "result": "18 to 24", "unit": "h"},
      {"measurement": "BrdU-positive doublets", "setting": "[1]; antisense ON treated cultures recovered for an additional 24 hr without antisense ONs", "result": "appeared"}
    ]},
    {"compound": "neomycin sulfate", "values": [
      {"measurement": "loss of hair cells", "setting": "[2]", "result": "greater than 95%"},
      {"measurement": "loss of hair cells", "setting": "[2]; listed as neomycin", "result": 95, "unit": "%"},
      {"measurement": "HCs killed", "setting": "[3]", "result": "> 95", "unit": "%"}
    ]},
    {"compound": "NCC[C@H](O)C(=O)N[C@@H]1C[C@H](N)[C@@H](O[C@H]2O[C@H](CN)[C@@H](O)[C@H](O)[C@H]2O)[C@H](O)[C@H]1O[C@H]1O[C@H](CO)[C@@H](O)[C@H](N)[C@H]1O.O=S(=O)(O)O.O=S(=O)(O)O", "note": "[Amikacin, amikacin sulfate]", "values": [
      {"measurement": "auditory improvement (ABR threshold)", "setting": "auditory function", "result": "five out of eight"},
      {"measurement": "number of BrdU labeled cells, utricle", "setting": "[4]; p27^Kip1 +/+ mice, 14 d recovery, whole sensory epithelium, ±s.d.", "result": "0.0 ± 0.0"},
      {"measurement": "number of BrdU labeled cells, cristae", "setting": "[4]; [5]", "result": "0.0 ± 0.0"},
      {"measurement": "number of BrdU labeled cells, saccule", "setting": "[4]; [5]", "result": "0.0 ± 0.0"},
      {"measurement": "proliferation in the saccule or utricle after combined amikacin/BrdU treatment", "setting": "[4]; p27^Kip1 +/− mice", "result": "a very low level of proliferation was induced"},
      {"measurement": "number of BrdU labeled cells, utricle", "setting": "[4]; p27^Kip1 +/− mice, 14 d recovery, whole sensory epithelium, ±s.d.", "result": "0.4 ± 0.7"},
      {"measurement": "number of BrdU labeled cells, cristae", "setting": "[4]; [6]", "result": "0.0 ± 0.0"},
      {"measurement": "number of BrdU labeled cells, saccule", "setting": "[4]; [6]", "result": "1.6 ± 1.9"},
      {"measurement": "number of BrdU labeled cells, utricle", "setting": "[4]; p27^Kip1 −/− mice, 14 d recovery, whole sensory epithelium, ±s.d.", "result": "45.5 ± 19.2"},
      {"measurement": "number of BrdU labeled cells, cristae (sub-head printed as utricle)", "setting": "[4]; [7]", "result": "0.0 ± 0.0"},
      {"measurement": "number of BrdU labeled cells, saccule", "setting": "[4]; [7]", "result": "51.8 ± 15.3"},
      {"measurement": "increase in the number of BrdU positive cells after combined amikacin/BrdU treatment", "setting": "[4]; p27^Kip1 −/− mice, saccule and utricle (both organs), versus BrdU only", "result": 40, "unit": "fold"},
      {"measurement": "number of BrdU positive cells following amikacin/BrdU vs BrdU alone treatment", "setting": "organ of Corti; cochlea of both p27^Kip1 −/− and +/− mice", "result": "increased"},
      {"measurement": "number of BrdU labeled cells in the organ of Corti", "setting": "organ of Corti; p27^Kip1 +/+ mice, BrdU/Amikacin + 2d recovery", "result": "0.0 ± 0.0"},
      {"measurement": "number of BrdU labeled cells in the organ of Corti", "setting": "organ of Corti; p27^Kip1 +/+ mice, BrdU/Amikacin + 14d recovery", "result": "0.0 ± 0.0"},
      {"measurement": "number of BrdU labeled cells in the organ of Corti", "setting": "organ of Corti; p27^Kip1 +/− mice, BrdU/Amikacin + 2d recovery", "result": "4.7 ± 7.6"},
      {"measurement": "number of BrdU labeled cells in the organ of Corti", "setting": "organ of Corti; p27^Kip1 +/− mice, BrdU/Amikacin + 14d recovery", "result": "10.5 ± 12.0"},
      {"measurement": "number of BrdU labeled cells in the organ of Corti", "setting": "organ of Corti; p27^Kip1 −/− mice, BrdU/Amikacin + 2d recovery", "result": "96.3 ± 9.5"},
      {"measurement": "number of BrdU labeled cells in the organ of Corti", "setting": "organ of Corti; p27^Kip1 −/− mice, BrdU/Amikacin + 14d recovery", "result": "137.4 ± 17.0"},
      {"measurement": "p27 heterozygotes showing evidence of inner cell proliferative regeneration (BrdU-labeling and morphologic criteria)", "setting": "organ of Corti; p27 heterozygotes of Table 2, amikacin treated", "result": "five out of ten"},
      {"measurement": "BrdU positive cells in wt cochlea", "setting": "organ of Corti; wt cochlea following amikacin/BrdU", "result": "No BrdU positive cells were observed"}
    ]},
    {"compound": "16 mer antisense ON: 16 mer p27^Kip1 antisense ON having the nucleic acid sequence set forth in SEQ ID NO:20 (antisense TGGCTCTCCTGCGCC; listed as DNA, chemistry not given here)", "values": [
      {"measurement": "reversal of growth arrest", "setting": "guinea pig JH4 cells; lipofection, serum withdrawal", "result": "over 40 % of normal"},
      {"measurement": "reversal of growth arrest (BrdU-labeled cells)", "setting": "guinea pig JH4 cells; serum deprivation 24 hours, BrdU pulse last 4 hours, combination of lipids and AS, p<0.0001", "result": "40 % of that seen with 10% FBS stimulation"}
    ]}
  ]
}
